Reference: PMC9927457 (Microbiology Spectrum, 2023)
Values after ≈ are worked out from the molar mass of the structure shown.

What was measured:
[1] = Plasma protein binding (Rapid Equilibrium Dialysis); assay type: in vitro ADME, human; conditions: human; for fraction unbound at 4 h, 5 µM: plasma
Protocol: Molecule fraction fraction Post-Assay
Table S5. Plasma protein binding
Protein binding was measured in human plasma using Rapid Equilibrium Dialysis (RED) devices (Pierce) according to the manufacturers’ instructions; 5 µM compounds in plasma were dialysed against PBS for 4 h at 37C. Compounds were detected by LC-MS/MS in plasma and PBS

[2] = target: SPase activity in M. tuberculosis H37Rv cell membrane fractions (Mycobacterium tuberculosis, UniProt P9WKA1); assay: Inhibition of secretion (SPase activity) in membrane fractions; assay type: biochemical; conditions: fluorogenic peptide substrate 2 μM; 4 h, 37 °C
CYP2B6 = target: T1, CYP2B6 (Homo sapiens, UniProt P20813); assay: Cytochrome P450 inhibition
T1 sequence (P20813 1-491): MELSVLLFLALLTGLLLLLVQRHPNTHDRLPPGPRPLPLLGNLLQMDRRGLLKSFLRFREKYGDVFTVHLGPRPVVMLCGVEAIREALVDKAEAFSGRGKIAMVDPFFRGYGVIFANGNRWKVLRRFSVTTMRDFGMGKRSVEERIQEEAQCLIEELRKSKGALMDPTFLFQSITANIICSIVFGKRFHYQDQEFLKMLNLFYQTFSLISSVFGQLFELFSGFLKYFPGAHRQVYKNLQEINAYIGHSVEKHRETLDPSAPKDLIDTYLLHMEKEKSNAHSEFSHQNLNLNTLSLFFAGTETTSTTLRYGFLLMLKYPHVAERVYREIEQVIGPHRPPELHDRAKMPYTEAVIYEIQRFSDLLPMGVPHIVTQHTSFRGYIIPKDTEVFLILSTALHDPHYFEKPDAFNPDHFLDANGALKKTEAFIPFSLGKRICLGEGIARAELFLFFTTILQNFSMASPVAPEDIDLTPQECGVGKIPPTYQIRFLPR
Protocol: (§1) Table S4. Inhibition of cytochrome P450s.
Compounds were tested for inhibition of P450s using the enzyme substrate pairs and conditions noted. IC50s (µM) were calculated. Control P450 inhibitors were included for each isoform.
For each compound, the analytical method was developed as follows. Analyte signal was optimized for each compound by ESI positive or negative ionization mode. An MS2 scan or an SIM scan was used to optimize fragmenter voltage and a product ion analysis was used to identify the best fragment for analysis. The collision energy was optimized using a product ion or MRM scan. An ionization ranking was assigned indicating the compound’s ease of ionization. Samples […]
(§2) 1200 HPLC and a CTC PAL chilled autosampler, all controlled by MassHunter software (Agilent).
(§3) After separation on a C18 reverse phase HPLC column (Agilent Zorbax StableBond 3.5µm, 2.1 x 30 mm) using an acetonitrile -water gradient system, peaks were analyzed by mass spectrometry (MS) using ESI ionization in MRM mode.
(1 picture or pasted object on this page, not shown here)
(§4) Serial dilutions of a 10 mM stock solution were prepared in acetonitrile:DMSO (9:1). The final DMSO concentration was < 0.2%. Compounds were incubated with human liver microsomes in the presence of 2 mM NADPH in 100 mM potassium phosphate (pH 7.4) containing 5 mM magnesium chloride and a probe substrate, in a 200 µl assay final volume in duplicate. The probe substrate concentrations including bupropion (CYP2B6), amodiaquine (CYP2C8), tolbutamide (CYP2C9), mephenytoin (CYP2C19), dextromethorphan (CYP2D6) and midazolam/testosterone […]
(§5) After incubation at 37 °C, reactions were terminated by addition of methanol containing internal standard (propranolol) for analytical quantification. The quenched samples were kept on ice for 10 min and centrifuged at 4 °C for 10 min. The supernatant was removed and the probe substrate metabolite was analyzed by LC-MS/MS (Agilent Technologies Triple Quad LC/MS). A decrease in the formation of the metabolite compared to vehicle control

CYP2C9 = CYP2C9 (Homo sapiens, UniProt P11712); assay: biochemical
Protocol: as §1
(§6) Compounds were tested for inhibition of P450s using the enzyme substrate pairs and conditions noted. IC50s (µM) were calculated. Control P450 inhibitors were included for each isoform. […]
as §4, §5

CYP2D6 = CYP2D6 (Homo sapiens, UniProt P10635); assay: biochemical
Protocol: as §1, §6, §2, §3, §4, §5

[3] = system: nonreplicating M. tuberculosis; assay: Kill kinetics, nonreplicating (nutrient starved) bacteria; assay type: cell-based, Mycobacterium tuberculosis; conditions: nutrient starvation, PBS-tyloxapol
[4] = system: M. tuberculosis strain under expressing LepB (LepB-UE); assay: microbe, parasite or virus in culture; assay type: cell-based, Mycobacterium tuberculosis
[5] = system: M. tuberculosis wild-type strain; assay: MIC against wild-type M. tuberculosis; assay type: cell-based, Mycobacterium tuberculosis; conditions: concentration required to inhibit growth by 90%, 5 days culture
[6] = Mean plasma fraction Unbound Fuplasma

Sequence of CYP2D6 (P10635 whole entry): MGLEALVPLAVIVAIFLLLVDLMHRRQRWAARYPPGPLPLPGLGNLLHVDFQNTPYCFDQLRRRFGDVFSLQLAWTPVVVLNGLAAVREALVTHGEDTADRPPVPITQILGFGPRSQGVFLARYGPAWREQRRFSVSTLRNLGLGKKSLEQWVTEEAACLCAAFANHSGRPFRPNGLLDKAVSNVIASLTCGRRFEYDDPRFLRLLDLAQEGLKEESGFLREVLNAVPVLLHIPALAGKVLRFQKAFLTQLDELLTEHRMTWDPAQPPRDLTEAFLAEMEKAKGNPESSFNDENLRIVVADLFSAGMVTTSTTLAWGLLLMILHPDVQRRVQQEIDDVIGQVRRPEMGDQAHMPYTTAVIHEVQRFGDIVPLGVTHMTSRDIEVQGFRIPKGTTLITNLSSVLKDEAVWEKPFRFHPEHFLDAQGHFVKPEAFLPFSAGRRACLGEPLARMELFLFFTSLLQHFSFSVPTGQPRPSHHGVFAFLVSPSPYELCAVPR
Sequence of CYP2C9 (P11712 whole entry): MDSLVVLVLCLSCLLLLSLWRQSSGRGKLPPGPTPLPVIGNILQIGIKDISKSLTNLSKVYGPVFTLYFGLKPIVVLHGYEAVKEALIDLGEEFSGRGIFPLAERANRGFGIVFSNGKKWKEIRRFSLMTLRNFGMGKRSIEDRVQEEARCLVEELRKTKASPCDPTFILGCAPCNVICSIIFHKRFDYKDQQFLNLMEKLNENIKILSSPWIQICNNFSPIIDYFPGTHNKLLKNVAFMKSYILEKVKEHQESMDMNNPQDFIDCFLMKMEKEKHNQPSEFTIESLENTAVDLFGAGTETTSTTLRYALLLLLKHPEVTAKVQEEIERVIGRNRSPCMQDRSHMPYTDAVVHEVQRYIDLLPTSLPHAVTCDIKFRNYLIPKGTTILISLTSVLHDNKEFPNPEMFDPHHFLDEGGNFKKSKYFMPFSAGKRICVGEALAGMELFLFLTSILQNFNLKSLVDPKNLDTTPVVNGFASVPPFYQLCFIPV
Sequence of SPase activity in M. tuberculosis H37Rv cell membrane fractions (P9WKA1 whole entry): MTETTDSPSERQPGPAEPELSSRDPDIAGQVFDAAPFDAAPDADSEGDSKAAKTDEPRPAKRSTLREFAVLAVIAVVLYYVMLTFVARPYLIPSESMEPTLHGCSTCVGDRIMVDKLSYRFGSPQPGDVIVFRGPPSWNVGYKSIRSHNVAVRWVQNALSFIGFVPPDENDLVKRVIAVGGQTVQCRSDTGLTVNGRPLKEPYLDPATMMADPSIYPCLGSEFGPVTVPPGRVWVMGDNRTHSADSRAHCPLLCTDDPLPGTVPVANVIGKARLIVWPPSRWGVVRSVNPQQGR

Row | Compound | recovery at 4 h, 5 µM [1] [%] | fraction unbound at 4 h, 5 µM ([1]; Mean plasma fraction Bound) | fraction unbound at 4 h, 5 µM [1, 6] | IC50 [2] [µM] | IC50 (CYP2B6) [µM] | IC50 (CYP2C9) [µM] | IC50 (CYP2D6) [µM] | concentration giving sterilization of nonreplicating organisms [3] [µM] | MIC LepB-UE [4] [µM] | MIC ([4]; Mycobacterium tuberculosis, 120 h) [µM] | MIC ([5]; Mycobacterium tuberculosis, 120 h, read-out: MIC Wild type) [µM] | MIC Wild type [5] [µM]
1 | CCCCNC(=S)Nc1nc2ccccc2s1 [Molecule 1, 1-(benzo[d]thiazol-2-yl)-3-butylthiourea] | 84.3 | 0.001 | 0.001 | > 200 | > 20 | > 20 | > 20 | 20 | – | – | – | –
2 | CCCCNC(=S)Nc1nc(C)co1 [Molecule 21, 1-butyl-3-(4-methyloxazol-2-yl)thiourea] | 83.9 | 0.037 | 0.037 | – | > 20 | > 20 | > 20 | – | 8.4 ± 3.4 (≈ 1.79 µg/mL) | 8 to 9 (≈ 1.71 to 1.92 µg/mL) | 10 (≈ 2.13 µg/mL) | 10 ± 2.0 (≈ 2.13 µg/mL)
